The source of these data is PubChem BioAssay (NCI).

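Each compound was tested at five concentrations against cells in 96-well plates for 48 hours. TGI: concentration producing complete growth inhibition.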 Some results are limits rather than exact numbers.

A word on the TGI: it is the concentration giving total growth inhibition. A lower TGI goes with more potent growth arrest.

Among the test systems are HOP-18 NSCLC; XF 498 CNS; M19-MEL melanoma; LXFL 529 NSCLC; DMS 114 small cell lung; DLD-1 colon; KM20L2 colon; RXF-631 renal.
Experiment in all cases: DTP human tumour cell line panel, 48 h

Regarding `O=C1C(Cl)=C(c2ccc([N+](=O)[O-])cc2)C(=O)c2c(O)cccc21`, the concentration for total growth inhibition (TGI) with HOP-18 NSCLC is 2.04 µM; with XF 498 CNS, 1.95 µM; in the test on M19-MEL melanoma, 3.52 µM; in the test with LXFL 529 NSCLC it was 0.94 µM; with DMS 114 small cell lung, 0.786 µM; with DLD-1 colon, 2.55 µM.
For the molecule `Cc1nc2c(n1-c1ccccc1)C(=O)c1ccccc1C2=O`, the results for the concentration for total growth inhibition (TGI) in the test on M19-MEL melanoma, in the test on DMS 114 small cell lung and in the test on DLD-1 colon were 40.4 µM, 61.3 µM and over 100 µM, respectively.
Take `O=C(O)Cc1ccccc1CCc1ccccc1Cl`: the TGI in the test with HOP-18 NSCLC, in the test on XF 498 CNS, in the test with M19-MEL melanoma, in the test with KM20L2 colon, in the test with LXFL 529 NSCLC and in the test with DLD-1 colon was over 100 µM in each case.
Take `C[C@]12CCC(=O)C=C1CC[C@@H]1[C@@H]2[C@@H](O)C[C@@]2(C)[C@H]1CC[C@]2(O)C(=O)COC(=O)CCC1CCCC1`: the TGI with XF 498 CNS, in the test with M19-MEL melanoma, with KM20L2 colon, in the test with LXFL 529 NSCLC, in the test with DMS 114 small cell lung and with DLD-1 colon was over 100 µM throughout.
With `CCCCCCCCCCCCCCCCCCNC(=O)OCC(CNS(=O)(=O)CCC[n+]1cccc2ccccc21)COC` (stereo unspecified), the TGI in the test on HOP-18 NSCLC was found to be 15.4 µM; in the test on KM20L2 colon it was 2.15 µM; in the test on DLD-1 colon, 27.5 µM.
For the molecule `O=c1c(O)cccn1C1OC(CO)C(O)C1O` (stereo unspecified), the TGI in the test on HOP-18 NSCLC, in the test with KM20L2 colon, in the test on LXFL 529 NSCLC, with DMS 114 small cell lung, in the test on RXF-631 renal and with DLD-1 colon was over 100 µM in each case.
On to `COc1ccc2ccccc2c1CN1CCOCCOCCN(Cc2c(OC)ccc3ccccc23)CCOCCOCC1`, for which the total growth inhibition concentration (TGI) with XF 498 CNS is over 63.2 µM; with M19-MEL melanoma, over 100 µM; in the test on KM20L2 colon, over 100 µM; with LXFL 529 NSCLC it was over 100 µM; in the test on DMS 114 small cell lung, over 100 µM; in the test on DLD-1 colon it was over 100 µM.
